Source: patent publication US12252488B2 (Nimbus Saturn, Inc., priority 2021, dated 2025)

Each compound was assayed against T1, HPK1 (Homo sapiens, UniProt Q92918) (assay: HPK1 biochemical enzyme assay (microfluidic mobility shift assay)). Settings: 1000 uM (1 mM) ATP; Caliper mobility shift; 1.5 nM HPK1; 30 min preincubation; read-out: HPK1 1000UMATP caliper IC50.
T1 construct: purchased Invitrogen
Outline: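 Microfluidic mobility-shift readout with 1.5 nM HPK1 in pH 7.4 buffer; compounds (ten-point curves, top 3 μM final) preincubated 30 min with enzyme/substrate. Reaction started with 1 mM ATP and 1 μM substrate plus 5 mM MgCl2, run 60 min at RT. IC50 values binned into activity classes.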

T1 sequence (Q92918 whole entry): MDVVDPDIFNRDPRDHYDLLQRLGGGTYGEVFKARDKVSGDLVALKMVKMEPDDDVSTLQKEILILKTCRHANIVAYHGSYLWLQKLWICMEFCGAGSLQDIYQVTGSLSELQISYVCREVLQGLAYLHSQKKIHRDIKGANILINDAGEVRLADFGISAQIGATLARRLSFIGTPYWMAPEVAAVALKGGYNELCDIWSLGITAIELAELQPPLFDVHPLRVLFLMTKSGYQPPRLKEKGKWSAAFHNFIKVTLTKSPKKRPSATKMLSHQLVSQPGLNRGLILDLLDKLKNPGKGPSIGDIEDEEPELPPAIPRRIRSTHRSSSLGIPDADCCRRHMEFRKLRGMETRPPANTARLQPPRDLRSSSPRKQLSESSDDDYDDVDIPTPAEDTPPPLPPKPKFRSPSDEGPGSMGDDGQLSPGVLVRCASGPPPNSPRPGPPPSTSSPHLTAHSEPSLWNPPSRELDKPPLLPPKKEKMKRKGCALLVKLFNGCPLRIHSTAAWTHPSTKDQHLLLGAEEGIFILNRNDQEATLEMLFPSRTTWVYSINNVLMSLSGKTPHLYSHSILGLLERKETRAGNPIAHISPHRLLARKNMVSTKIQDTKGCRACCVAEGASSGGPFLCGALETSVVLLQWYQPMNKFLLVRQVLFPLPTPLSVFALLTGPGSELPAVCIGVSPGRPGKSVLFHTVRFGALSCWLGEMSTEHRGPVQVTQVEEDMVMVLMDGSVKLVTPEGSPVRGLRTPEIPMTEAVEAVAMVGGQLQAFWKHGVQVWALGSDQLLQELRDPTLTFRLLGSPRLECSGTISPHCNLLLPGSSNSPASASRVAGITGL

IC50 [nM]	SMILES
100 to 1000	O=c1[nH]ccc2nc(N3CCC[C@@H](O)C3)cc(Nc3ccc(N4CCC(O)CC4)cn3)c12 [I-82, 2-[(3R)-3-hydroxy-1-piperidyl]-4-[[5-(4-hydroxy-1-piperidyl)-2-pyridyl]amino]-6H-1,6-naphthyridin-5-one]
100 to 1000	O=C(c1ccc(-c2cc(Nc3ccc(N4CCC(O)CC4)cn3)c3c(=O)[nH]ccc3n2)c(F)c1)N1CCCCC1 [I-71, 2-[2-fluoro-4-(piperidine-1-carbonyl)phenyl]-4-[[5-(4-hydroxy-1-piperidyl)-2-pyridyl]amino]-6H-1,6-naphthyridin 5-one]
> 1000	O=c1[nH]ccc2nc(N3CCC3)cc(Nc3ccc(N4CCC(O)CC4)cn3)c12 [I-144, 2-(azetidin-1-yl)-4-[[5-(4-hydroxy-1-piperidyl)-2-pyridyl]amino]-6H-1,6-naphthyridin-5-one]
100 to 1000	CC(C)(O)c1c[nH]c(=O)c2c(Nc3ccc(N4CCC(O)CC4)cn3)cc(-c3c(F)cccc3F)nc12 [I-16, 2-(2,6-difluorophenyl)-8-(1-hydroxy-1-methyl-ethyl)-4-[[5-(4-hydroxy-1-piperidyl)-2-pyridyl]amino]-6H-1,6-naphthyridin-5-one]
100 to 1000	O=C(c1ccc(F)c(-c2cc(Nc3ccc(N4CCC(O)CC4)cn3)c3c(=O)[nH]ccc3n2)c1)N1CCC1 [I-95, 2-[5-(azetidine-1-carbonyl)-2-fluoro-phenyl]-4-[[5-(4-hydroxy-1-piperidyl)-2-pyridyl]amino]-6H-1,6-naphthyridin-5-one]
100 to 1000	COc1cc(-c2cc(Nc3ccc(N4C[C@H]5COC[C@H]5C4)cn3)c3c(=O)[nH]ccc3n2)c(F)cc1C(=O)N1CCCCC1 [I-229, 4-[[5-[(3aR,6aS)-1,3,3a,4,6,6a-hexahydro-furo[3,4-c]pyrrol-5-yl]-2-pyridyl]amino]-2-[2-fluoro-5-methoxy-4-(piperidine-1-carbonyl)phenyl]-6H-1,6-naphthyridin-5-one]
100 to 1000	O=c1[nH]ccc2nc(-c3cc(CN4CCCCC4)ccc3F)cc(Nc3ccc(N4CCC(O)CC4)cn3)c12 [I-150, 2-[2-fluoro-5-(1-piperidyl-methyl)phenyl]-4-[[5-(4-hydroxy-1-piperidyl)-2-pyridyl]amino]-6H-1,6-naphthyridin-5-one]
100 to 1000	Cc1c[nH]c(=O)c2c(Nc3ccc(N4CCC(O)CC4)cn3)cc(-c3ccc(C(=O)N4CCCCC4)cc3F)nc12 [I-146, 2-[2-fluoro-4-(piperidine-1-carbonyl)phenyl]-4-[[5-(4-hydroxy-1-piperidyl)-2-pyridyl]amino]-8-methyl-6H-1,6-naphthyridin-5-one]
≤ 100	O=c1[nH]ccc2nc(-c3cc4c(cc3F)CCC4N3CCCCC3)cc(Nc3ccc(N4CCC(O)CC4)cn3)c12 (centres unmarked) [I-249, 2-[6-fluoro-3-(1-piperidyl)indan-5-yl]-4-[[5-(4-hydroxy-1-piperidyl)-2-pyridyl]amino]-6H-naphthyridin-5-one]
≤ 100	CC(C)c1ccc(F)c(-c2cc(Nc3ccc(N4CCNCC4)cn3)c3c(=O)[nH]ccc3n2)c1 [I-110, 2-(2-fluoro-5-isopropyl-phenyl)-4-[(5-piperazin-1-yl-2-pyridyl)amino]-6H-1,6-naphthyridin-5-one]
100 to 1000	CS(=O)(=O)Cc1ccc(Nc2cc(-c3c(F)cccc3F)nc3cc[nH]c(=O)c23)nc1 [I-30, 2-(2,6-difluoro-phenyl)-4-[[5-(methyl-sulfonyl-methyl)-2-pyridyl]amino]-6H-1,6-naphthyridin-5-one]
100 to 1000	CC(C)(C)c1ccc(F)c(-c2cc(Nc3ccc(N4CCC(O)CC4)cn3)c3c(=O)[nH]ccc3n2)c1 [I-96, 2-(5-tert-butyl-2-fluoro-phenyl)-4-[[5-(4-hydroxy-1-piperidyl)-2-pyridyl]amino]-6H-1,6-naphthyridin-5-one]
≤ 100	O=c1[nH]ccc2nccc(Nc3ccc(N4CCC(O)CC4)cn3)c12 [I-44, 4-[[5-(4-hydroxy-1-piperidyl)-2-pyridyl]amino]-6H-1,6-naphthyridin-5-one]
> 1000	O=C(c1ccc(-c2cc(Nc3ccc(N4CCC5(CCOCC5)CC4)cn3)c3c(=O)[nH]ccc3n2)c(F)c1)N1CCCCC1 [I-148, 2-[2-fluoro-4-(piperidine-1-carbonyl)phenyl]-4-[[5-(3-oxa-9-azaspiro [5.5]undecan-9-yl)-2-pyridyl]amino]-6H-naphthyridin-5-one]
100 to 1000	Cc1c[nH]c(=O)c2c(Nc3ccc(N4CCC(O)CC4)cn3)cc(-c3c(F)cccc3F)nc12 [I-25, 2-(2,6-difluorophenyl)-4-[[5-(4-hydroxy-1-piperidyl)-2-pyridyl]amino]-8-methyl-6H-1,6-naphthyridin-5-one]
100 to 1000	CC(C)c1cc(Nc2ccc(N3CCC(O)CC3)cn2)c2c(=O)[nH]cnc2n1 [I-59, 5-[[5-(4-hydroxy-1-piperidyl)-2-pyridyl]amino]-7-isopropyl-3H-pyrido[2,3-d]pyrimidin-4-one]

IC50 [nM]	SMILES
≤ 100	O=c1[nH]ccc2nc(N3CC[C@H](O)C3)cc(Nc3ccc(N4CCC(O)CC4)cn3)c12 [I-88, 4-[[5-(4-hydroxy-1-piperidyl)-2-pyridyl]amino]-2-[(3S)-3-hydroxy-pyrrolidin-1-yl]-6H-1,6-naphthyridin-5-one]
≤ 100	O=C(c1ccc(-c2cc(Nc3ccc(N4CCC(O)CC4)cn3)c3c(=O)[nH]ccc3n2)c(F)c1)N1CC2CCC(C1)O2 [I-142, 2-[2-fluoro-4-(8-oxa-3-azabicyclo [3.2.1]octane-3-carbonyl)phenyl]-4-[[5-(4-hydroxy-1-piperidyl)-2-pyridyl]amino]-6H-naphthyridin-5-one]
100 to 1000	O=c1[nH]ccc2nc(-c3cc4c(cc3F)CCC4O)cc(Nc3ccc(N4CCC(O)CC4)cn3)c12 (centres unmarked) [I-192, 2-(6-fluoro-3-hydroxy-indan-5-yl)-4-[[5-(4-hydroxy-1-piperidyl)-2-pyridyl]amino]-6H-1,6-naphthyridin-5-one]
100 to 1000	CCOc1cc(-c2cc(Nc3ccc(N4CCC(O)CC4)cn3)c3c(=O)[nH]ccc3n2)c(F)cc1C(=O)N1CCCCC1 [I-196, 2-[5-ethoxy-2-fluoro-4-(piperidine-1-carbonyl)phenyl]-4-[[5-(4-hydroxy-1-piperidyl)-2-pyridyl]amino]-6H-1,6-naphthyridin-5-one]
≤ 100	CC1(c2ccc(F)c(-c3cc(Nc4ccc(N5CCC(O)CC5)cn4)c4c(=O)[nH]ccc4n3)c2)CC1 [I-102, 2-[2-fluoro-5-(1-methylcyclo-propyl)phenyl]-4-[[5-(4-hydroxy-1-piperidyl)-2-pyridyl]amino]-6H-1,6-naphthyridin-5-one]
≤ 100	O=C(c1ccc(-c2cc(Nc3ccc(N4CCC(O)CC4)cn3)c3c(=O)[nH]ccc3n2)c(F)c1)N1CC2CCC1C2 (centres unmarked) [I-137, 2-[4-(3-azabicyclo [2.2.1]heptane-3-carbonyl) 2-fluoro-phenyl]-4-[[5-(4-hydroxy-1-piperidyl)-2-pyridyl]amino]-6H-1,6-naphthyridin-5-one]
100 to 1000	N#Cc1c[nH]c(=O)c2c(Nc3ccc(N4CCC(O)CC4)cn3)cc(-c3c(F)cccc3F)nc12 [I-33, 2-(2,6-difluorophenyl)-4-[[5-(4-hydroxy-1-piperidyl)-2-pyridyl]amino]-5-oxo-6H-1,6-naphthyridine-8-carbonitrile]
100 to 1000	O=C(Nc1ccc(-c2cc(Nc3ccc(N4CCC(O)CC4)cn3)c3c(=O)[nH]ccc3n2)c(F)c1)C1CCC1 [I-152, N-[3-fluoro-4-[4-[[5-(4-hydroxy-1-piperidyl)-2-pyridyl]amino]-5-oxo-6H-1,6-naphthyridin-2-yl]phenyl] cyclobutane-carboxamide]
≤ 100	O=c1[nH]ccc2nc(N3CCC4(CCNC4)CC3)cc(Nc3ccc(N4CCC(O)CC4)cn3)c12 [I-235, 2-(2,8-diazaspiro[4.5]decan-8-yl)-4-[[5-(4-hydroxy-1-piperidyl)-2-pyridyl]amino]-6H-1,6-naphthyridin-5-one]
100 to 1000	COc1cccc(F)c1-c1cc(Nc2ccc(N3CCC(O)CC3)cn2)c2c(=O)[nH]ccc2n1 [I-185, 2-(2-fluoro-6-methoxy-phenyl)-4-[[5-(4-hydroxy-1-piperidyl)-2-pyridyl]amino]-6H-1,6-naphthyridin-5-one]
≤ 100	O=c1[nH]ccc2nc(C3CCOCC3)cc(Nc3ccc(N4CCC(O)CC4)cn3)c12 [I-36, 4-[[5-(4-hydroxy-1-piperidyl)-2-pyridyl]amino]-2-tetrahydropyran-4-yl-6H-1,6-naphthyridin-5-one]
> 1000	COc1cc(-c2cc(Nc3ccc(N4CCC(O)CC4)cn3)c3c(=O)[nH]ccc3n2)c(F)cc1CN1CCCCC1 [I-216, 2-[2-fluoro-5-methoxy-4-(1-piperidyl-methyl)phenyl]-4-[[5-(4-hydroxy-1-piperidyl)-2-pyridyl]amino]-6H-1,6-naphthyridin-5-one]
≤ 100	CC1CCCN(C(=O)c2ccc(-c3cc(Nc4ccc(N5CCC(O)CC5)cn4)c4c(=O)[nH]ccc4n3)c(F)c2)C1 (centres unmarked) [I-135, 2-[2-fluoro-4-(3-methyl-piperidine-1-carbonyl)phenyl]-4-[[5-(4-hydroxy-1-piperidyl)-2-pyridyl]amino]-6H-1,6-naphthyridin-5-one]
> 1000	COc1cc(-c2cc(Nc3ccc(N4CCC(O)CC4)cn3)c3c(=O)[nH]ccc3n2)ccc1C(=O)N1CCCCC1 [I-195, 4-[[5-(4-hydroxy-1-piperidyl)-2-pyridyl]amino]-2-[3-methoxy-4-(piperidine-1-carbonyl)phenyl]-6H-1,6-naphthyridin-5-one]
100 to 1000	CN(C)C1CCc2cc(-c3cc(Nc4ccc(N5CCC(O)CC5)cn4)c4c(=O)[nH]ccc4n3)c(F)cc21 (centres unmarked) [I-238, 2-[1-(dimethyl-amino)-6-fluoro-indan-5-yl]-4-[[5-(4-hydroxy-1-piperidyl)-2-pyridyl]amino]-6H-1,6-naphthyridin-5-one]
≤ 100	O=c1[nH]ccc2nc(-c3c(F)cccc3F)cc(Nc3ccc(N4CCNCC4)cn3)c12 [I-6, 2-(2,6-difluoro-phenyl)-4-[(5-piperazin-1-yl-2-pyridyl)amino]-6H-1,6-naphthyridin-5-one]
